Laboratory results published in US20070104787A1, “Carboxyalkyl cellulose esters for sustained delivery of pharmaceutically active substances” (priority 2005, published 2007).

What was measured:
[1] = USP #2 paddle dissolution test: release of active in pH 1.2 or pH 6.8 buffer; format: physicochemical; conditions: for total release of active (in words): CMCAB tablets (Formulations E17, E18, E20), pH 1.2
Procedure: The dissolution tests were done using a USP #2 calibrated apparatus Varian VK 7000 with Teflon paddles. The pills were added to 900 ml of USP 1.2 pH buffer or to 900 ml of USP pH 6.8 buffer. The buffer solutions had each been degassed at 41° C. through a 0.45 micron hydrophilic polypropylene filter and held under vacuum for an additional 5 minutes. After the solutions were added to the dissolution vessels, the solutions were held at 37.3° C. in the water bath for 30 minutes to achieve constant temperature, prior to the addition of the tablets. The tablets were weighted down with a Varian 3-pronged capsule weight. At the beginning of each run, the tablets were allowed to sink to the bottom of the 1000 ml vessel, the stirrers were turned on at 50 rpm and samples taken as a function of time, using polypropylene syringes. The samples were filtered through 0.45 micron filters and immediately analyzed for the amount of aspirin in the solution. The wavelength for measuring the amount of aspirin (salicylic acid acetate) at pH 1.2 was 279 nm, which was the wavelength for equivalent molar absorptivities for both salicylic acid and aspirin using a Varian UV-VIS Spectrophotometer and quartz absorption cells. Similarly, the wavelength used to measure the concentration of the aspirin in pH 6.8 buffer was 267 nm, which was the wavelength where the molar absorptivity for salicylic acid and aspirin are equivalent at pH 6.8. This allowed accurate measurement of the release rate profile without having to worry about the degradation of the aspirin to salicylic acid with time. Each set of experiments had appropriate standards for reference for quantitative analysis. In the cases where the samples contained Vitamin E-TPGS, HPLC with UV detection was done to analyze for aspirin and salicylic acid.
6.0069 g CMCAB was mixed with 1.4937 g Fexofenadine HCl and 10.7693 g ethanol. The clear solution was allowed to dry into a clear film. The amorphous compatible film was then ground in a SPEX™ liquid nitrogen Freezer Mill for 6 minutes at 75% maximum speed. Torpac Inc. #2 Gelatin capsules were filled with the powdered polymer blend and tested using a Varian VK7000 USP II dissolution device at pH 1.2 and pH 6.8. The dissolution results are shown in FIG. 24, which is a plot of fexofenadine released from CMCAB solid dispersion (y-axis) versus time (minutes, x-axis) for Formulation E24 in Example 4. […] By varying the way the carboxyalkyl cellulose ester is mixed with the active, the rate of release can be varied so that one can achieve near zero order release of the active over a long period of time.

[2] = cited from earlier work

SMILES | total release of active (in words) [1] | pH dependence of release ([1]; CMCAB tablet (Formulation E22), pH 1.2 versus pH 6.8) | duration of near zero order release ([1]; CMCAB tablet at 25% active (Formulation E22)) | water solubility [2]
CC(C)Cc1ccc(C(C)C(=O)O)cc1 (stereo not drawn) [ibuprofen] | low total release |  |  | 
Cc1nnc(NS(=O)(=O)c2ccc(N)cc2)s1 [sulfamethizole] | low total release |  |  | 
OC(Cn1cncn1)(Cn1cncn1)c1ccc(F)cc1F [fluconazole] |  | little pH dependence | up to 500 minutes | highly water soluble
COc1cc(Cc2cnc(N)nc2N)cc(OC)c1OC [trimethoprim] | low total release |  |  | 
